{
  "source": "ChEMBL document CHEMBL4387741",
  "about": "“Optimization of novel reversible Bruton's tyrosine kinase inhibitors identified using Tethering-fragment-based screens” (Bioorg Med Chem, 2019)",
  "key": {"[1]": {"tested_on": "ALK tyrosine kinase receptor (Homo sapiens), Q9UM73 [C1156Y]", "assay": "Inhibition of wild-type human partial length ALK C1156Y mutant (I1088 to E1409 residues) expressed in mammalian expression system at 1 uM by Kinomescan method relative to control"}, "[2]": {"biological_target": "Serine/threonine-protein kinase DCLK3 (Homo sapiens) (UniProt Q9C098)", "sequence (Q9C098 whole entry, the tested form may be a part)": "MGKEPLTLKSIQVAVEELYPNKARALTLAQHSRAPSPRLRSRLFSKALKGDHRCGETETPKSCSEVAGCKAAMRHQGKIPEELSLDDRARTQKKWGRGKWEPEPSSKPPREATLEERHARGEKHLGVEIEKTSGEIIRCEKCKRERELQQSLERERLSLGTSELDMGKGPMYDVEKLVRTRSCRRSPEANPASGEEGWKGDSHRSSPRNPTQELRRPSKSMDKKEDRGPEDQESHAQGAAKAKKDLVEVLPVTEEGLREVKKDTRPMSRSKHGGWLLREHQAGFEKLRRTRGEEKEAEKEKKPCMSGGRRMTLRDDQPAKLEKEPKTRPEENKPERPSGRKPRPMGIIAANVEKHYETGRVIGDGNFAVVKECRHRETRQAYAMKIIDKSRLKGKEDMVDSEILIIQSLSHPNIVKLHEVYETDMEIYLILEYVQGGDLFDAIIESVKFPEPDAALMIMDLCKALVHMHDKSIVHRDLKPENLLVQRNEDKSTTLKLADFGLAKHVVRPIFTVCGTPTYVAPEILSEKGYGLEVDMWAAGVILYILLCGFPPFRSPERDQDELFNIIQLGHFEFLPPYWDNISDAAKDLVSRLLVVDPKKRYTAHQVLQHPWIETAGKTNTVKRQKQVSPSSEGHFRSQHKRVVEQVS", "assay": "Inhibition of wild-type human partial length DCAMKL3 (E140 to V628 residues) expressed in bacterial expression system at 1 uM by Kinomescan method relative to control"}, "[3]": {"biological_target": "Glycogen synthase kinase-3 beta (Homo sapiens) (UniProt P49841)", "sequence (P49841 whole entry, looked up, the tested form may be a part)": "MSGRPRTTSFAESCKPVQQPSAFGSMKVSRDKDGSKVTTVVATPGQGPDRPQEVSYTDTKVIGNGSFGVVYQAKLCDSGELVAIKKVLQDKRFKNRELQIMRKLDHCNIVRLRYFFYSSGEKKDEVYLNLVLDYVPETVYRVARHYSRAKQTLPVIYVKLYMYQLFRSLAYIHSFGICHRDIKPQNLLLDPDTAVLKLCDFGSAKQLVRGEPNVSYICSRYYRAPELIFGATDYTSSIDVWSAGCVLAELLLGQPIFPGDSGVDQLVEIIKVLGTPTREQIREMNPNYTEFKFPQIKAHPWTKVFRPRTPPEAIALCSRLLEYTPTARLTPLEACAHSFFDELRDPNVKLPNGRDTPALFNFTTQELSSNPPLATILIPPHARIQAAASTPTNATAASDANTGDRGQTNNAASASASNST", "assay": "Inhibition of wild-type human full length GSK3B (M1 to T433 residues) expressed in mammalian expression system at 1 uM by Kinomescan method relative to control"}, "[4]": {"biological_target": "Serine/threonine-protein kinase 32B (Homo sapiens) (UniProt Q9NY57)", "assay": "Inhibition of wild-type human full length YANK2 (M1 to S414 residues) expressed in bacterial expression system at 1 uM by Kinomescan method relative to control"}, "[5]": {"biological_target": "Mitogen-activated protein kinase kinase kinase 19 (Homo sapiens) (UniProt Q56UN5)", "assay": "Inhibition of wild-type human partial length YSK4 (T1019 to H1328 residues) expressed in mammalian expression system at 1 uM by Kinomescan method relative to control"}, "[6]": {"biological_target": "Insulin receptor (Homo sapiens) (UniProt P06213)", "assay": "Inhibition of wild-type human partial length INSR (P997 to E1318 residues) expressed in mammalian expression system at 1 uM by Kinomescan method relative to control"}, "[7]": {"biological_target": "Casein kinase I isoform epsilon (Homo sapiens) (UniProt P49674)", "assay": "Inhibition of wild-type human full length CSNK1E (M1 to K416 residues) expressed in bacterial expression system at 1 uM by Kinomescan method relative to control"}, "[8]": {"biological_target": "Ribosomal protein S6 kinase alpha-3 (Homo sapiens) (UniProt P51812)", "assay": "Inhibition of wild-type human partial length N-terminal RSK2 kinase domain 1 (M1 to D394 residues) expressed in mammalian expression system at 1 uM by Kinomescan method relative to control"}, "[9]": {"biological_target": "Serine/threonine-protein kinase MARK2 (Homo sapiens) (UniProt Q7KZI7)", "sequence (Q7KZI7 whole entry, the tested form may be a part)": "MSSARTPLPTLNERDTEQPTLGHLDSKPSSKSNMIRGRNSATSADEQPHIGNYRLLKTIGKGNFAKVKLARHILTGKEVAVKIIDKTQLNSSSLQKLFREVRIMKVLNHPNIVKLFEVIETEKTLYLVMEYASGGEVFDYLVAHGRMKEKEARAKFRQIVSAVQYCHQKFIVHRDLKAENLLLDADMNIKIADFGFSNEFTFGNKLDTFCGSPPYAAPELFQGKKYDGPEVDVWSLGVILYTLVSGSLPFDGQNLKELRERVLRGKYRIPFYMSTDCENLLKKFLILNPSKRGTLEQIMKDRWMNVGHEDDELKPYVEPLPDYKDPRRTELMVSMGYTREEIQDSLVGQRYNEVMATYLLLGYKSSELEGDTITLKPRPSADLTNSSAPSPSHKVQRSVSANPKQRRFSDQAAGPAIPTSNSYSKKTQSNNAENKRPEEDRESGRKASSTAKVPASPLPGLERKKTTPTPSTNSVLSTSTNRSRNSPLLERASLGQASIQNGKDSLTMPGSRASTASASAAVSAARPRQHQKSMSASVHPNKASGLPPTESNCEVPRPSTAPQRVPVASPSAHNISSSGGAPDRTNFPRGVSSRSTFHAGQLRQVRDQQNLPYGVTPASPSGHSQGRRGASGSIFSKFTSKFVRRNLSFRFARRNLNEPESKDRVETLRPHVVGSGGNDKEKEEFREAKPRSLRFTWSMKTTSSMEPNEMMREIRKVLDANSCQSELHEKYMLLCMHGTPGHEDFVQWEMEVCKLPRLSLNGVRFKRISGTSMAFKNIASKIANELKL", "assay": "Inhibition of wild-type human partial length MARK2 (M1 to R450 residues) expressed in bacterial expression system at 1 uM by Kinomescan method relative to control"}, "[10]": {"biological_target": "Mitogen-activated protein kinase 1 (Homo sapiens) (UniProt P28482)", "sequence (P28482 whole entry, the tested form may be a part)": "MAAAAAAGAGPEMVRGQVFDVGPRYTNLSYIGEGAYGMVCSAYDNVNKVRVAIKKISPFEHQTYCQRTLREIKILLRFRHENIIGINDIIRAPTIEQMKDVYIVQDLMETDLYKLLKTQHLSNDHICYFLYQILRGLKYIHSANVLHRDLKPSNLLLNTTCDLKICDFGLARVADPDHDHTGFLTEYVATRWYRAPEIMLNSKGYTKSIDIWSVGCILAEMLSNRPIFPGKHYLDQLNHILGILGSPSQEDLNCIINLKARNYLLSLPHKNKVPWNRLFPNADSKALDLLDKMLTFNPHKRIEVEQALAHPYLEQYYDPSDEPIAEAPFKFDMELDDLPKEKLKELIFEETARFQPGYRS", "assay": "Inhibition of wild-type human full length ERK2 (M1 to S360 residues) expressed in bacterial expression system at 1 uM by Kinomescan method relative to control"}, "[11]": {"biological_target": "Serine/threonine-protein kinase Nek9 (Homo sapiens) (UniProt Q8TD19)", "assay": "Inhibition of wild-type human partial length NEK9 (P32 to R328 residues) expressed in bacterial expression system at 1 uM by Kinomescan method relative to control"}, "[12]": {"biological_target": "5'-AMP-activated protein kinase catalytic subunit alpha-2 (Homo sapiens) (UniProt P54646)", "sequence (P54646 whole entry, looked up, the tested form may be a part)": "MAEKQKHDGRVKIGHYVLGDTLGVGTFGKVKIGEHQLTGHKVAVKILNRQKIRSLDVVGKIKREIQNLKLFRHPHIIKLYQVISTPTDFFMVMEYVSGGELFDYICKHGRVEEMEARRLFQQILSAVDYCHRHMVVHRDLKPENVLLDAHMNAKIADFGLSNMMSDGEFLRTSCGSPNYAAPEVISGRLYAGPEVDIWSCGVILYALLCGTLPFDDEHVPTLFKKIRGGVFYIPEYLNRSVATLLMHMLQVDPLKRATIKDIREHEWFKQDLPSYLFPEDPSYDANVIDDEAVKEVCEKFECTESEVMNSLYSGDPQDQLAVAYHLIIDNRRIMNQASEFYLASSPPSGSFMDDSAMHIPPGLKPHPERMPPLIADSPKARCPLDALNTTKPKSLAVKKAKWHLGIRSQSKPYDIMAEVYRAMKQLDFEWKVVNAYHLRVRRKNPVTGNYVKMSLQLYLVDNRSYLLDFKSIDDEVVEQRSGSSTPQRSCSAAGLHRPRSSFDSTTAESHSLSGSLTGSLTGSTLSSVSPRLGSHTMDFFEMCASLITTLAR", "assay": "Inhibition of wild-type human partial length AMPK alpha2 (M1 to E306 residues) expressed in bacterial expression system at 1 uM by Kinomescan method relative to control"}, "[13]": {"biological_target": "Serine/threonine-protein kinase 38-like (Homo sapiens) (UniProt Q9Y2H1)", "assay": "Inhibition of wild-type human partial length NDR2 (N34 to E447 residues) expressed in bacterial expression system at 1 uM by Kinomescan method relative to control"}, "[14]": {"biological_target": "Interleukin-1 receptor-associated kinase 3 (Homo sapiens) (UniProt Q9Y616)", "assay": "Inhibition of wild-type human partial length IRAK3 (V147 to E596 residues) expressed in bacterial expression system at 10 uM by Kinomescan method relative to control"}, "[15]": {"biological_target": "Serine/threonine-protein kinase PLK2 (Homo sapiens) (UniProt Q9NYY3)", "assay": "Inhibition of wild-type human partial length PLK2 (H58 to F354 residues) expressed in mammalian expression system at 10 uM by Kinomescan method relative to control"}, "[16]": {"biological_target": "CDK4/Cyclin D3 (Homo sapiens) (UniProt P11802+P30281)", "assay": "Inhibition of wild-type human full length CDK4/cyclinD3 (M1 to E303 residues) expressed in mammalian expression system at 10 uM by Kinomescan method relative to control"}, "[17]": {"biological_target": "Serine/threonine-protein kinase Nek3 (Homo sapiens) (UniProt P51956)", "assay": "Inhibition of wild-type human full length NEK3 (M1 to R506 residues) expressed in mammalian expression system at 10 uM by Kinomescan method relative to control"}, "[18]": {"biological_target": "Receptor-type tyrosine-protein kinase FLT3 (Homo sapiens) (UniProt P36888)", "sequence (P36888 whole entry, the tested form may be a part)": "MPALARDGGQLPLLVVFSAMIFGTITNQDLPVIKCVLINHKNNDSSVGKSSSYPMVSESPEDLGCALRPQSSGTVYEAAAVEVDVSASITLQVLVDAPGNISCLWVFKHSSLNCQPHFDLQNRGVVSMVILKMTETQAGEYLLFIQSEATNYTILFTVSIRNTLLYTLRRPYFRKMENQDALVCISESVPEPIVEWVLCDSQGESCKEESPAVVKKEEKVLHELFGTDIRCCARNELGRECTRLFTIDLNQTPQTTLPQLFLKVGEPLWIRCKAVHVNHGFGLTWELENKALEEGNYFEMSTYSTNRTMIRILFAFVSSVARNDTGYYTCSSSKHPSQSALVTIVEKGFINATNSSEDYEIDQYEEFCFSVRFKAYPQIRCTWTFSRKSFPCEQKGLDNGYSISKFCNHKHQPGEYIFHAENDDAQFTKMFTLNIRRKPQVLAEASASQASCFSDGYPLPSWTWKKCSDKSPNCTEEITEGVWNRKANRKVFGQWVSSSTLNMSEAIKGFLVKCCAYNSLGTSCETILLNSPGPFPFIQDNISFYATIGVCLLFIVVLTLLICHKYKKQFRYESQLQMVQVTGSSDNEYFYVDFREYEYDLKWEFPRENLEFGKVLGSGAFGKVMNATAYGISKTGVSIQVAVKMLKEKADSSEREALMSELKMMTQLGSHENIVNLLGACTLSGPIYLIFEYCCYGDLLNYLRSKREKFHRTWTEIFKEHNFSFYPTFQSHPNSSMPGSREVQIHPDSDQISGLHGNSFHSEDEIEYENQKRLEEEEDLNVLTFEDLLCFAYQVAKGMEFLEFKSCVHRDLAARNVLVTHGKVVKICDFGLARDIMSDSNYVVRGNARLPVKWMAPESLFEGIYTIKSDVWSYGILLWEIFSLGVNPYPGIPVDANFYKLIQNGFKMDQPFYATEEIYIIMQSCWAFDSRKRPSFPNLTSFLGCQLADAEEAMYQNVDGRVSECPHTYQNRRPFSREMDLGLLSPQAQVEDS", "assay": "Inhibition of wild-type human partial length autoinhibited FLT3 (H564 to Y969 residues) expressed in mammalian expression system at 10 uM by Kinomescan method relative to control"}, "[19]": {"biological_target": "Leukocyte tyrosine kinase receptor (Homo sapiens) (UniProt P29376)", "assay": "Inhibition of wild-type human partial length LTK (P422 to S744 residues) expressed in bacterial expression system at 10 uM by Kinomescan method relative to control"}, "[20]": {"biological_target": "Serine/threonine-protein kinase 32C (Homo sapiens) (UniProt Q86UX6)", "sequence (Q86UX6 whole entry, the tested form may be a part)": "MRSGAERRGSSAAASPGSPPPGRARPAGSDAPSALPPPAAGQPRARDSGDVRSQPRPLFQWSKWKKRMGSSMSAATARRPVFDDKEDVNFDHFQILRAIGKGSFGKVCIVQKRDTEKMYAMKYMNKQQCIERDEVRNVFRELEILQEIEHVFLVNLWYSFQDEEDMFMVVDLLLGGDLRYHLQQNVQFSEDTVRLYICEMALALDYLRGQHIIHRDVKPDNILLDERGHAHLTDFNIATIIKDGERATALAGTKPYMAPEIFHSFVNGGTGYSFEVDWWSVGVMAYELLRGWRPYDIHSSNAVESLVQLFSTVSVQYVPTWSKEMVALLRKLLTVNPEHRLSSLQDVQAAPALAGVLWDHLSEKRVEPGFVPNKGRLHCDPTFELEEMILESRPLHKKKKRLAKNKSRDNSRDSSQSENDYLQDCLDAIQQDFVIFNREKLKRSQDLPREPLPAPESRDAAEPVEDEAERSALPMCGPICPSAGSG", "assay": "Inhibition of wild-type human partial length YANK3 (M68 to G486 residues) expressed in bacterial expression system at 10 uM by Kinomescan method relative to control"}, "[21]": {"tested_on": "Tyrosine-protein kinase ABL1 (Homo sapiens), P00519 [H396P]", "assay": "Inhibition of human phosphorylated ABL1 H396P mutant (S229 to K512 residues) expressed in mammalian expression system at 10 uM by Kinomescan method relative to control"}, "[22]": {"biological_target": "Mitogen-activated protein kinase kinase kinase 7 (Homo sapiens) (UniProt O43318)", "assay": "Inhibition of wild-type human partial length TAK1 (M1 to Q303 residues) expressed in mammalian expression system at 10 uM by Kinomescan method relative to control"}, "[23]": {"tested_on": "Tyrosine-protein kinase ABL1 (Homo sapiens), P00519 [Q252H]", "assay": "Inhibition of human phosphorylated ABL1 Q252H mutant expressed in mammalian expression system at 10 uM by Kinomescan method relative to control"}, "[24]": {"biological_target": "Serine/threonine-protein kinase STK11 (Homo sapiens) (UniProt Q15831)", "sequence (Q15831 whole entry, the tested form may be a part)": "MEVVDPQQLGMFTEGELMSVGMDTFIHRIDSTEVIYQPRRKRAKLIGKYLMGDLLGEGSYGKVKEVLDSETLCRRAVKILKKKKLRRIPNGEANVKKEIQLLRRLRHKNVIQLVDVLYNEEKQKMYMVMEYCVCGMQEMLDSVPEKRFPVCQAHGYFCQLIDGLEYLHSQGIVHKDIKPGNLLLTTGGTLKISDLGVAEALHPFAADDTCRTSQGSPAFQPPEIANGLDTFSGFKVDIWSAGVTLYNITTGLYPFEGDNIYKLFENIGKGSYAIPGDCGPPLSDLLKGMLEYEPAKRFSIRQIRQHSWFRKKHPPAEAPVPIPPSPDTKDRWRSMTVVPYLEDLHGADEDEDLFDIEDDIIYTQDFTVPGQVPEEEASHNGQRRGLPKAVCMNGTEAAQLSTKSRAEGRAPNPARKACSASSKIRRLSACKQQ", "assay": "Inhibition of wild-type human full length LKB1 (M1 to Q433 residues) expressed in bacterial expression system at 10 uM by Kinomescan method relative to control"}, "[25]": {"biological_target": "Mitogen-activated protein kinase kinase kinase kinase 4 (Homo sapiens) (UniProt O95819)", "assay": "Inhibition of wild-type human partial length MAP4K4 (M1 to R310 residues) expressed in bacterial expression system at 10 uM by Kinomescan method relative to control"}, "[26]": {"biological_target": "Tyrosine-protein kinase receptor UFO (Homo sapiens) (UniProt P30530)", "assay": "Inhibition of wild-type human partial length AXL (R497 to Y821 residues) expressed in bacterial expression system at 10 uM by Kinomescan method relative to control"}, "[27]": {"biological_target": "Tyrosine-protein kinase Yes (Homo sapiens) (UniProt P07947)", "assay": "Inhibition of wild-type human partial length YES (T257 to L543 residues) expressed in bacterial expression system at 10 uM by Kinomescan method relative to control"}},
  "data": [
    {"smiles": "O=C(Nc1cccc([C@@H]2CN(c3ncnc4[nH]ccc34)CCN2CCO)c1)Nc1c(F)cccc1N1CCCC1", "values": [
      {"measurement": "inhibition", "setting": "[1]", "result": 70, "unit": "%"},
      {"measurement": "inhibition", "setting": "[2]", "result": 85, "unit": "%"},
      {"measurement": "inhibition", "setting": "[3]", "result": 83, "unit": "%"},
      {"measurement": "inhibition", "setting": "[4]", "result": 100, "unit": "%"},
      {"measurement": "inhibition", "setting": "[5]", "result": 40, "unit": "%"},
      {"measurement": "inhibition", "setting": "[6]", "result": 100, "unit": "%"},
      {"measurement": "inhibition", "setting": "[7]", "result": 94, "unit": "%"},
      {"measurement": "inhibition", "setting": "[8]", "result": 94, "unit": "%"},
      {"measurement": "inhibition", "setting": "[9]", "result": 69, "unit": "%"},
      {"measurement": "inhibition", "setting": "[10]", "result": 90, "unit": "%"},
      {"measurement": "inhibition", "setting": "[11]", "result": 95, "unit": "%"},
      {"measurement": "inhibition", "setting": "[12]", "result": 56, "unit": "%"},
      {"measurement": "inhibition", "setting": "[13]", "result": 100, "unit": "%"}
    ]},
    {"smiles": "O=C(Nc1cccc([C@H]2CCCN(c3ncnc4[nH]ccc34)C2)c1)Nc1ccccc1N1CCCC1", "values": [
      {"measurement": "inhibition", "setting": "[14]", "result": 92, "unit": "%"},
      {"measurement": "inhibition", "setting": "[15]", "result": 78, "unit": "%"},
      {"measurement": "inhibition", "setting": "[16]", "result": 100, "unit": "%"},
      {"measurement": "inhibition", "setting": "[17]", "result": 59, "unit": "%"},
      {"measurement": "inhibition", "setting": "[18]", "result": 72, "unit": "%"},
      {"measurement": "inhibition", "setting": "[19]", "result": 100, "unit": "%"},
      {"measurement": "inhibition", "setting": "[20]", "result": 100, "unit": "%"},
      {"measurement": "inhibition", "setting": "[21]", "result": 51, "unit": "%"},
      {"measurement": "inhibition", "setting": "[22]", "result": 24, "unit": "%"},
      {"measurement": "inhibition", "setting": "[23]", "result": 83, "unit": "%"},
      {"measurement": "inhibition", "setting": "[24]", "result": 25, "unit": "%"},
      {"measurement": "inhibition", "setting": "[25]", "result": 100, "unit": "%"},
      {"measurement": "inhibition", "setting": "[26]", "result": 16, "unit": "%"},
      {"measurement": "inhibition", "setting": "[27]", "result": 62, "unit": "%"}
    ]}
  ]
}
